From US8410117B2, “Imidazopyrimidine derivatives” (Hoffmann-La Roche Inc., priority 2010, dated 2013)
pIC50: −log10 of the molar value.

Molecular target: T1, human PDE10A (Homo sapiens, UniProt Q9Y233)
T1 construct: The human PDE10A full length assay; purchased Enzo Life Science, Lausen, Switzerland SE-534
Assay: human PDE10A full length Scintillation Proximity Assay (SPA)
Format: biochemical
Details: 50 nM cGMP and 50 nM [3H]-cGMP, 20 minutes at room temperature; read-out: PDE10A inhibition IC50
In short: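 Full-length enzyme at 3.75 ng/well in 20 mM HEPES pH 7.5, 10 mM MgCl2, 0.05 mg/ml BSA, with 50 nM cGMP plus 50 nM [3H]-cGMP substrate, 20 min at room temperature. Stopped with YSi-SPA beads in zinc sulphate and counted by scintillation. IC50 from inhibitor concentration series; no-enzyme wells define background.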

T1 sequence (Q9Y233 1-779 isoform Q9Y233-1): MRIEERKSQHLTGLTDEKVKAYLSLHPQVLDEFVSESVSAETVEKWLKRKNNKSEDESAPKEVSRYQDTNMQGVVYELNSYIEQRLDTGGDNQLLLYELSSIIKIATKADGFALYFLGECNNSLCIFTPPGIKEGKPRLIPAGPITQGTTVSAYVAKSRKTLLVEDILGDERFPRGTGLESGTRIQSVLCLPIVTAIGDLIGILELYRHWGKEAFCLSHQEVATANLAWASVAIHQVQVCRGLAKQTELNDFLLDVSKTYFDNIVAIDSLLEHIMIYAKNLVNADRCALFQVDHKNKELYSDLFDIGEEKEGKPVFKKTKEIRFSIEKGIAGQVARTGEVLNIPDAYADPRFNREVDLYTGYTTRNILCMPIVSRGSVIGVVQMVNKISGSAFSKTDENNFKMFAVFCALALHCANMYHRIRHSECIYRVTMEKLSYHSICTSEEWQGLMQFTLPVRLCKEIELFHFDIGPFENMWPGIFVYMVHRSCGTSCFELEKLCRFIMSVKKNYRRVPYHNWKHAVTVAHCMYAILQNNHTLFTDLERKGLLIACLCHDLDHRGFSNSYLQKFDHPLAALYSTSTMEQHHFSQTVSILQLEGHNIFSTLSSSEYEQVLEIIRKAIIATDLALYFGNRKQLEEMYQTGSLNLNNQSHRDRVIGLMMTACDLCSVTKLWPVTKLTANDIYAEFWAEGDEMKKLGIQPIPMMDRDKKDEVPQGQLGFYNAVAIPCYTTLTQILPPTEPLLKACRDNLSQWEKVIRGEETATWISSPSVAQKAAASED

Structure (SMILES) | pIC50
Cn1ncc(C(=O)N2CC(F)(F)C2)c1C(=O)Nc1ccn2cc(-c3ccccc3)nc2n1 [Example 34, 4-(3,3-Difluoro-azetidine-1-carbonyl)-2-methyl-2H-pyrazole-3-carboxylic acid (2-phenyl-imidazo[1,2-a]pyrimidin-7-yl)-amide] | 7.46
CN(CCOCCF)C(=O)c1cnn(C)c1C(=O)Nc1ccn2cc(-c3cccc(OCCF)c3)nc2n1 [Example 109, 2-Methyl-2H-pyrazole-3,4-dicarboxylic acid 4-{[2-(2-fluoro-ethoxy)-ethyl]-methyl-amide}3-({2-[3-(2-fluoro-ethoxy)-phenyl]-imidazo[1,2-a]pyrimidin-7-yl}-amide)] | 7.05
O=C(Nc1ccn2cc(-c3ccccc3)nc2n1)c1nn[nH]c1C(=O)NC1COC1 [Example 141, N5-(oxetan-3-yl)-N4-(2-phenylimidazo[1,2-a]pyrimidin-7-yl)-1H-1,2,3-triazole-4,5-dicarboxamide] | 6.82
Cn1ncc(C(=O)N2CCC2)c1C(=O)Nc1ccn2cc(-c3cccc(Cl)c3)nc2n1 [Example 63, 4-(Azetidine-1-carbonyl)-2-methyl-2H-pyrazole-3-carboxylic acid [2-(3-chloro-phenyl)-imidazo[1,2-a]pyrimidin-7-yl]-amide] | 8.32
Cn1ncc(C(=O)N2CCCC2)c1C(=O)Nc1ccn2cc(-c3ccccc3)nc2n1 [Example 48, 2-Methyl-4-(pyrrolidine-1-carbonyl)-2H-pyrazole-3-carboxylic acid (2-phenyl-imidazo[1,2-a]pyrimidin-7-yl)-amide] | 8.46
O=C(Nc1ccn2cc(-c3ccccc3)nc2n1)c1nn[nH]c1C(=O)N1CCC1 [Example 27, 5-(Azetidine-1-carbonyl)-1H-[1,2,3]triazole-4-carboxylic acid (2-phenyl-imidazo[1,2-a]pyrimidin-7-yl)-amide] | 6.79
CCN(C)C(=O)c1cnn(C)c1C(=O)Nc1ccn2cc(-c3cccc(F)c3)nc2n1 [Example 97, 2-Methyl-2H-pyrazole-3,4-dicarboxylic acid 4-(ethyl-methyl-amide) 3-{[2-(3-fluoro-phenyl)-imidazo[1,2-a]pyrimidin-7-yl]-amide}] | 7.83
COc1ncccc1CNC(=O)c1cnn(C)c1C(=O)Nc1ccn2cc(-c3ccccc3)nc2n1 [Example 161, N4-((2-methoxypyridin-3-yl)methyl)-1-methyl-N5-(2-phenylimidazo[1,2-a]pyrimidin-7-yl)-1H-pyrazole-4,5-dicarboxamide] | 6.26
COCCNC(=O)c1[nH]nnc1C(=O)Nc1ccn2cc(-c3ccccc3)nc2n1 [Example 150, N5-(2-methoxyethyl)-N4-(2-phenylimidazo[1,2-a]pyrimidin-7-yl)-1H-1,2,3-triazole-4,5-dicarboxamide] | 6.58
CCCCn1ncc(Cl)c1C(=O)Nc1ccn2cc(-c3ccccc3)nc2n1 [Example 9, 2-Butyl-4-chloro-2H-pyrazole-3-carboxylic acid (2-phenyl-imidazo[1,2-a]pyrimidin-7-yl)-amide] | 7.35
CN(CCF)C(=O)c1cnn(C)c1C(=O)Nc1ccn2cc(-c3cccc(OCF)c3)nc2n1 [Example 108, 2-Methyl-2H-pyrazole-3,4-dicarboxylic acid 4-[(2-fluoro-ethyl)-methyl-amide]3-{[2-(3-fluoromethoxy-phenyl)-imidazo[1,2-a]pyrimidin-7-yl]-amide}] | 7.09
COc1cccc(C(=O)Nc2ccn3cc(-c4ccccc4)nc3n2)n1 [Example 22, 6-Methoxy-pyridine-2-carboxylic acid (2-phenyl-imidazo[1,2-a]pyrimidin-7-yl)-amide] | 7.38
CCC(C)n1ncc(Cl)c1C(=O)Nc1ccn2cc(-c3ccccc3)nc2n1 (stereo not drawn) [Example 11, 2-sec-Butyl-4-chloro-2H-pyrazole-3-carboxylic acid (2-phenyl-imidazo[1,2-a]pyrimidin-7-yl)-amide] | 6.98
Cn1ncc(C(=O)N2CC(F)C2)c1C(=O)Nc1ccn2cc(-c3cccc(OCCF)c3)nc2n1 [Example 90, 4-(3-Fluoro-azetidine-1-carbonyl)-2-methyl-2H-pyrazole-3-carboxylic acid {2-[3-(2-fluoro-ethoxy)-phenyl]imidazo[1,2-a]pyrimidin-7-yl}-amide] | 8.21
CC(=O)Oc1cccc(-c2cn3ccc(NC(=O)c4c(C(=O)N(C)C)cnn4C)nc3n2)c1 [Example 93, 3-(7-(4-(dimethylcarbamoyl)-1-methyl-1H-pyrazole-5-carboxamido)imidazo[1,2-a]pyrimidin-2-yl)phenyl acetate] | 8.08
CCN(CC)C(=O)c1cnn(C)c1C(=O)Nc1ccn2cc(-c3ccccc3)nc2n1 [Example 47, 2-Methyl-2H-pyrazole-3,4-dicarboxylic acid 4-diethylamide 3-[(2-phenyl-imidazo[1,2-a]pyrimidin-7-yl)-amide]] | 7.82
CCCNC(=O)c1[nH]nnc1C(=O)Nc1ccn2cc(-c3ccccc3)nc2n1 [Example 156, N4-(2-phenylimidazo[1,2-a]pyrimidin-7-yl)-N5-propyl-1H-1,2,3-triazole-4,5-dicarboxamide] | 6.44

Structure (SMILES) | pIC50
Cc1cc(CNC(=O)c2cnn(C)c2C(=O)Nc2ccn3cc(-c4ccccc4)nc3n2)on1 [Example 127, 1-methyl-N4-((3-methylisoxazol-5-yl)methyl)-N5-(2-phenylimidazo[1,2-a]pyrimidin-7-yl)-1H-pyrazole-4,5-dicarboxamide] | 7.59
CC(C)Cn1nc([N+](=O)[O-])cc1C(=O)Nc1ccn2cc(-c3ccccc3)nc2n1 [Example 13, 2-Isobutyl-5-nitro-2H-pyrazole-3-carboxylic acid (2-phenyl-imidazo[1,2-a]pyrimidin-7-yl)-amide] | 7.32
Cn1ncc(C(=O)NCc2ccc(C(F)(F)F)nc2)c1C(=O)Nc1ccn2cc(-c3ccccc3)nc2n1 [Example 144, 1-methyl-N5-(2-phenylimidazo[1,2-a]pyrimidin-7-yl)-N-4-((6-(trifluoromethyl)pyridin-3-yl)methyl)-1H-pyrazole-4,5-dicarboxamide] | 6.70
CC(NC(=O)c1cnn(C)c1C(=O)Nc1ccn2cc(-c3ccccc3)nc2n1)c1cccnc1 (stereo not drawn) [Example 139, 1-methyl-N5-(2-phenylimidazo[1,2-a]pyrimidin-7-yl)-N4-(1-(pyridin-3-yl)ethyl)-1H-pyrazole-4,5-dicarboxamide] | 6.83
CCCn1ncc(Cl)c1C(=O)Nc1ccn2cc(-c3ccccc3)nc2n1 [Example 8, 4-Chloro-2-propyl-2H-pyrazole-3-carboxylic acid (2-phenyl-imidazo[1,2-a]pyrimidin-7-yl)-amide] | 7.19
Cn1ncc(C(=O)NCc2ccncc2)c1C(=O)Nc1ccn2cc(-c3ccccc3)nc2n1 [Example 148, 1-methyl-N5-(2-phenylimidazo[1,2-a]pyrimidin-7-yl)-N4-(pyridin-4-ylmethyl)-1H-pyrazole-4,5-dicarboxamide] | 6.61
COc1cccc(-c2cn3ccc(NC(=O)c4c(C(=O)N(C)C)cnn4C)nc3n2)c1 [Example 85, 2-Methyl-2H-pyrazole-3,4-dicarboxylic acid 4-dimethylamide 3-{[2-(3-methoxy-phenyl)-imidazo[1,2-a]pyrimidin-7-yl]-amide}] | 8.40
Cn1ncc(C(=O)NCc2ccno2)c1C(=O)Nc1ccn2cc(-c3ccccc3)nc2n1 [Example 131, N4-(isoxazol-5-ylmethyl)-1-methyl-N5-(2-phenylimidazo[1,2-a]pyrimidin-7-yl)-1H-pyrazole-4,5-dicarboxamide] | 7.45
CCCn1ccc(CNC(=O)c2cnn(C)c2C(=O)Nc2ccn3cc(-c4ccccc4)nc3n2)n1 [Example 164, 1-methyl-N5-(2-phenylimidazo[1,2-a]pyrimidin-7-yl)-N4-((1-propyl-1H-pyrazol-3-yl)methyl)-1H-pyrazole-4,5-dicarboxamide] | 6.14
Cn1ncc(C(=O)N2CC(F)C2)c1C(=O)Nc1ccn2cc(-c3ccccc3)nc2n1 [Example 115, 4-(3-fluoroazetidine-1-carbonyl)-1-methyl-N-(2-phenylimidazo[1,2-a]pyrimidin-7-yl)-1H-pyrazole-5-carboxamide] | 8.29
Cn1ncc(C(=O)N2CCCCC2)c1C(=O)Nc1ccn2cc(-c3ccccc3)nc2n1 [Example 52, 2-Methyl-4-(piperidine-1-carbonyl)-2H-pyrazole-3-carboxylic acid (2-phenyl-imidazo[1,2-a]pyrimidin-7-yl)-amide] | 8.54
COCCN(C)C(=O)c1cnn(C)c1C(=O)Nc1ccn2cc(-c3cccc(OC)c3)nc2n1 [Example 101, 2-Methyl-2H-pyrazole-3,4-dicarboxylic acid 4-[(2-methoxy-ethyl)-methyl-amide]3-{[2-(3-methoxy-phenyl)-imidazo[1,2-a]pyrimidin-7-yl]amide}] | 7.66
Cn1ncc(-c2ccno2)c1C(=O)Nc1ccn2cc(-c3ccccc3)nc2n1 [Example 20, 4-Isoxazol-5-yl-2-methyl-2H-pyrazole-3-carboxylic acid (2-phenyl-imidazo[1,2-a]pyrimidin-7-yl)-amide] | 6.19
COCCNC(=O)c1cnn(C)c1C(=O)Nc1ccn2cc(-c3ccccc3)nc2n1 [Example 46, 2-Methyl-2H-pyrazole-3,4-dicarboxylic acid 4-[(2-methoxy-ethyl)-amide]3-[(2-phenyl-imidazo[1,2-a]pyrimidin-7-yl)-amide]] | 6.11
O=C(Nc1ccn2cc(-c3ccccc3)nc2n1)c1nn[nH]c1C(=O)NC1CC1 [Example 159, N5-cyclopropyl-N4-(2-phenylimidazo[1,2-a]pyrimidin-7-yl)-1H-1,2,3-triazole-4,5-dicarboxamide] | 6.35
CCN(C)C(=O)c1cnn(C)c1C(=O)Nc1ccn2cc(-c3cccc(OCCF)c3)nc2n1 [Example 89, 2-Methyl-2H-pyrazole-3,4-dicarboxylic acid 4-(ethyl-methyl-amide) 3-({2-[3-(2-fluoro-ethoxy)-phenyl]imidazo[1,2-a]pyrimidin-7-yl}-amide)] | 8.21
